# Measured values published in US8940756B2, “Dihydronaphthyridines and related compounds useful as kinase inhibitors for the treatment of proliferative diseases” (Deciphera Pharmaceuticals, Inc., priority 2012, dated 2015).
# Experiments:
# [1] = target: Phospho-KIT (Tyr719) in GIST430 cells (Homo sapiens, UniProt P10721); test: GIST430 KIT Western Blot; assay type: cell-based; details: 4 hours, read-out: pKIT suppression by western blot analysi GIST430
# [2] = target: T1, c-KIT VVDV kinase (V559 and V560 deleted and D816V mutation, Seq ID no. 5) (Homo sapiens, UniProt P10721, D816V/DEL559-560); test: cKIT-VVDV Kinase Assay; assay type: biochemical; details: enzymatic assay, ATP 200 uM
# T1 construct: This construct contains residues T544-V976 of cKit (except for the D816V mutation and the deletion of residues V559 and V560); GST (N); TEV cleavage site (N); purchased deCODE Biostructures
# T1 sequence (P10721 with tags, fused parts or gaps DEL559-560/D816V): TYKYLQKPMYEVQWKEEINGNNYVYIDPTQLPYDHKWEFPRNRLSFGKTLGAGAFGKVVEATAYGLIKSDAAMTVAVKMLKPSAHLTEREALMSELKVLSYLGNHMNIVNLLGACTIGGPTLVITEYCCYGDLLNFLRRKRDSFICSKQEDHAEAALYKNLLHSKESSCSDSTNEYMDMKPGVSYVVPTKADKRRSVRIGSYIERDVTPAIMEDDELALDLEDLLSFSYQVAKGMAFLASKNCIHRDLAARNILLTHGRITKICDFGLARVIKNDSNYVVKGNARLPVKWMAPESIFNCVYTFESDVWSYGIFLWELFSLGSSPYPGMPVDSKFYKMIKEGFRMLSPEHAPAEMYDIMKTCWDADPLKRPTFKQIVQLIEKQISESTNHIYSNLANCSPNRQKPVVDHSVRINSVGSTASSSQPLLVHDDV
# Procedure: In this assay, the oxidation of NADH (measured by decrease in absorbance at 340 nm) was continuously monitored spectrophotometrically. […] The inhibition reaction was started by mixing serial diluted test compound with the above reaction mixture. The absorption at 340 nm was monitored continuously for 5 hours at 30° C. on Synergy 2 plate reader (BioTech). […] The protein construct was prepared by deCODE Biostructures using procedures known in the art. This construct contains […] of cKit (except for the D816V […]), an N-terminal tag, a GST-fusion sequence and a TEV cleavage site. This construct is identical to Seq ID no. 1 except for the D816V […].
# [3] = target: T2, c-KIT D816V kinase (Seq ID no. 4) (Homo sapiens, UniProt P10721, D816V); test: c-KIT D816V kinase Assay; assay type: biochemical; details: enzymatic assay, ATP 200 uM
# T2 construct: D816V c-KIT (residues T544-V976 with N-terminal GST fusion, 16 nM); purchased deCODE Biostructures
# T2 sequence (P10721 544-976 D816V): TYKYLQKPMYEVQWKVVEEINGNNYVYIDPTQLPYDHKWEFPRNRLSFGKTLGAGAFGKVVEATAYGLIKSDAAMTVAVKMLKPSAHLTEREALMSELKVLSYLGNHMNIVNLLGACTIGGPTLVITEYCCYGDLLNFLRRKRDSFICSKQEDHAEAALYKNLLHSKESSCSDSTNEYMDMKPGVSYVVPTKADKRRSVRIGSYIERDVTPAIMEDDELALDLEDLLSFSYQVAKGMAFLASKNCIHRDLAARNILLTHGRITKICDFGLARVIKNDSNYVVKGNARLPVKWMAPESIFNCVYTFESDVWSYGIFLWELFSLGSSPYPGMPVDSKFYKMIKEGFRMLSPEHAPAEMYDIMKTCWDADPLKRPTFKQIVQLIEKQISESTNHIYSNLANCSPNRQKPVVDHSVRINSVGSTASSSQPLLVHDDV
# Procedure: (§1) In this assay, the oxidation of NADH (measured by decrease in absorbance at 340 nm) was continuously monitored spectrophotometrically. […] The inhibition reaction was started by mixing serial diluted test compound with the above reaction mixture. The absorption at 340 nm was monitored continuously for 5 hours at 30° C. on Synergy 2 plate reader (BioTech).
# The protein construct was prepared by deCODE Biostructures using procedures known in the art. The construct contains residues T544-V976 of cKit, an N-terminal tag, a GST-fusion sequence and a TEV cleavage site. This construct is identical to Seq ID no. 1 except for the D816V mutation.
# [4] = target: Phospho-KIT (Tyr719) in GIST48 cells (Homo sapiens, UniProt P10721); test: GIST48 KIT Western Blot; assay type: cell-based; details: 4 hours, read-out: pKIT suppression by western blot analysi GIST48
# Sequence of Phospho-KIT (Tyr719) in GIST48 cells (P10721 whole entry V560D/D820A, form open): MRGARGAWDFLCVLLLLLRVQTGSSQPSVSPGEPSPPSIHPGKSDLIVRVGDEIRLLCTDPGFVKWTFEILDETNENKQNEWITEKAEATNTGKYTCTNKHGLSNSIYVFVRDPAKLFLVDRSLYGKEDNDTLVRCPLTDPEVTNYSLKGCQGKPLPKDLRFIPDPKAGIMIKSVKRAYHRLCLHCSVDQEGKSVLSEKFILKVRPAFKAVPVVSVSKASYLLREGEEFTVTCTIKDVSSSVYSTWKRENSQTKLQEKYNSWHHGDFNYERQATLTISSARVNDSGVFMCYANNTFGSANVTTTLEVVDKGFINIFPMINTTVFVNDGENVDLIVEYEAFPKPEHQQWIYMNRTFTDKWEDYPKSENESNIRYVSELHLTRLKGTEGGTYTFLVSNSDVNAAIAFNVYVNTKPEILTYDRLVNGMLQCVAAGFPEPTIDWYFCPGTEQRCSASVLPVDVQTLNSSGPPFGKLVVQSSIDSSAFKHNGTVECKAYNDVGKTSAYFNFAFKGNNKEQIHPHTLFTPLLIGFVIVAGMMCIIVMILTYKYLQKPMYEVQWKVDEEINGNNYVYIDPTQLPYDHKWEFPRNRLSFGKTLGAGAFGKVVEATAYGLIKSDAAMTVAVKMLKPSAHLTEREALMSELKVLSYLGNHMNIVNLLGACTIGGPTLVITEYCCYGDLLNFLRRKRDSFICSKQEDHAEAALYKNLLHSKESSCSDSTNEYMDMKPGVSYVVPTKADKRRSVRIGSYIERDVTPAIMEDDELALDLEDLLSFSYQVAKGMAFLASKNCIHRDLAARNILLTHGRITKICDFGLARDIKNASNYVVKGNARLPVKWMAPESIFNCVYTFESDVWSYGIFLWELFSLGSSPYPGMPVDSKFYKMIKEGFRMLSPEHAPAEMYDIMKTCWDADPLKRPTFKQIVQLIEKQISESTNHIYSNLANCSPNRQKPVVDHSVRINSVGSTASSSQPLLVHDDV
# [5] = target: T3, Phospho-KIT (Tyr719) in GIST882 cells (Homo sapiens, UniProt P10721, K642E); test: GIST882 KIT Western Blot; assay type: cell-based; details: 4 hours, read-out: pKIT suppression by western blot analysi GIST 882
# T3 construct: endogenous in cells; host or cells: GIST882
# T3 sequence (P10721 26-976 K642E): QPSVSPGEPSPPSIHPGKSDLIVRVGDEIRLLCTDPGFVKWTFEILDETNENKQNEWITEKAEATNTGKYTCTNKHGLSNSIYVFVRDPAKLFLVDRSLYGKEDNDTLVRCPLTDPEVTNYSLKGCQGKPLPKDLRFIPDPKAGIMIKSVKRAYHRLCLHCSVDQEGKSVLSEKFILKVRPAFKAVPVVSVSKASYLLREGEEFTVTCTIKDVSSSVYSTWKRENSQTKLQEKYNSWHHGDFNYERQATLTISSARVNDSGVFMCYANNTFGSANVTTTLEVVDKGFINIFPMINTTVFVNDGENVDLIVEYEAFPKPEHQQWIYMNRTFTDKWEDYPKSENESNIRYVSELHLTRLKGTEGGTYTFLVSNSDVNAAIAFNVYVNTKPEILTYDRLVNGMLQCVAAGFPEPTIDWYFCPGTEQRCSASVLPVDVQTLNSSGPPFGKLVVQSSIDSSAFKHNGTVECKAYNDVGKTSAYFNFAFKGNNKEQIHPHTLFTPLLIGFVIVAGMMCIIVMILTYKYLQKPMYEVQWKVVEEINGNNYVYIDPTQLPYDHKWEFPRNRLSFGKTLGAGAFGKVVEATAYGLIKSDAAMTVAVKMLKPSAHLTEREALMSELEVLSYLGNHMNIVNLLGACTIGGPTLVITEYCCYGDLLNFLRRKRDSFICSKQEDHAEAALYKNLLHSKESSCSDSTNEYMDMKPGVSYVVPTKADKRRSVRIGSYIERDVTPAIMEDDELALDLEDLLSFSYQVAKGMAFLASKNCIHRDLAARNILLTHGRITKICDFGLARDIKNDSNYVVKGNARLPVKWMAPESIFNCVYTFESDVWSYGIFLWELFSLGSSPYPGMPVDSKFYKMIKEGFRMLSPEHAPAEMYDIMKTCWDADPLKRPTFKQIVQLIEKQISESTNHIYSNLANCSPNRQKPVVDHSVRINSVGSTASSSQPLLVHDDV
# Procedure: GIST48, GIST430, and GIST882 cells were obtained from J. Fletcher (Brigham and Women's Hospital, Boston, Mass.). GIST T1 cells were obtained from B. Rubin (Cleveland Clinic, Cleveland, Ohio) and Professor Takahiro Taguchi (Kochi Medical School, Nankoku, Kochi, Japan). […] GIST430 cells were grown in Ham's F10 medium supplemented with 15% characterized fetal bovine serum (Invitrogen, Carlsbad, Calif.), 30 mg/L bovine pituitary extract (BD Biosciences, San Jose, Calif.), 0.5% Mito+ serum extender (BD Biosciences, San Jose, Calif.), 1 unit/mL penicillin G, 1 μg/ml streptomycin, and 0.29 mg/mL L-glutamine at 37° C., 5% CO2, 95% humidity. GIST T1 cells were grown in DMEM medium supplemented with 10% characterized fetal bovine serum (Invitrogen, Carlsbad, Calif.), 1 unit/mL penicillin G, 1 ng/ml streptomycin, and 0.29 mg/mL L-glutamine at 37° C., 5% CO2, and 95% humidity. Cells were allowed to expand until reaching 70-95% confluence at which point they were subcultured or harvested for assay use.
# Two hundred fifty thousand cells were added per well in a 24-well tissue-culture treated plate. Cells were then incubated overnight at 37° C., 5% CO2, 95% humidity. Medium was aspirated, cells were washed with PBS, and serum-free RPMI1640 medium was added. A serial dilution of test compound was added to plates containing cells and plates were incubated for 4 hours at 37° C., 5% CO2, 95% humidity. Cells were washed with PBS, then lysed. Cell lysates were separated by SDS-PAGE and transferred to PVDF. Phospho-KIT (Tyr719) was detected using an antibody from Cell Signaling Technology (Beverly, Mass.), ECL Plus detection reagent (GE Healthcare, Piscataway, N.J.) and a Molecular Devices Storm 840 phosphorimager in fluorescence mode. Blots were stripped and probed for total KIT using an antibody from Santa Cruz Biotech (Santa Cruz, Calif.). IC50 values were calculated using Prism software (Graphpad, San Diego, Calif.).
# [6] = target: T4, c-KIT T670I kinase (Seq ID no. 6) (Homo sapiens, UniProt P10721, T670I); test: c-KIT T670I Kinase Assay; assay type: biochemical; details: enzymatic assay, ATP 200 uM
# T4 construct: GST (N); TEV cleavage site (N); purchased deCODE Biostructures
# T4 sequence (P10721 544-976 T670I): as the sequence (P10721 544-976 D816V) above, with T127I, V273D counted along it
# Procedure: (§2) In this assay, the oxidation of NADH (measured by decrease in absorbance at 340 nm) was continuously monitored spectrophotometrically. […] The inhibition reaction was started by mixing serial diluted test compound with the above reaction mixture. The absorption at 340 nm was monitored continuously for 5 hours at 30° C. on Synergy 2 plate reader (BioTech). […] The protein construct was prepared by deCODE Biostructures using procedures known in the art. The construct contains […] of cKit, an N-terminal tag, a GST-fusion sequence and a TEV cleavage site. This construct is identical to Seq ID no.
# [7] = target: T5, c-KIT V654A kinase (Seq ID no. 2) (Homo sapiens, UniProt P10721, V654A); test: c-KIT V654A Kinase Assay; assay type: biochemical; details: enzymatic assay, ATP 200 μM
# T5 construct: V654A c-Kit (residues T544-V976 with N-terminal GST fusion, 47 nM); purchased deCODE Biostructures
# T5 sequence (P10721 544-976 V654A): as the sequence (P10721 544-976 D816V) above, with V111A, V273D counted along it
# Procedure: as §1, with “6” for “5”
# The protein construct was prepared by deCODE Biostructures using procedures known in the art. The construct contains residues T544-V976 of cKit, an N-terminal tag, a GST-fusion sequence and a TEV cleavage site. This construct is identical to Seq ID no.
# [8] = target: T6, c-KIT kinase (Seq ID no. 1) (Homo sapiens, UniProt P10721); test: c-KIT Kinase Assay (pyruvate kinase/lactate dehydrogenase coupled); assay type: biochemical; details: enzymatic assay, ATP 200 μM; read-out: KIT (wt)
# T6 construct: GST (N); TEV cleavage site (N); purchased deCODE Biostructures
# T6 sequence (P10721 with tags, fused parts or gaps): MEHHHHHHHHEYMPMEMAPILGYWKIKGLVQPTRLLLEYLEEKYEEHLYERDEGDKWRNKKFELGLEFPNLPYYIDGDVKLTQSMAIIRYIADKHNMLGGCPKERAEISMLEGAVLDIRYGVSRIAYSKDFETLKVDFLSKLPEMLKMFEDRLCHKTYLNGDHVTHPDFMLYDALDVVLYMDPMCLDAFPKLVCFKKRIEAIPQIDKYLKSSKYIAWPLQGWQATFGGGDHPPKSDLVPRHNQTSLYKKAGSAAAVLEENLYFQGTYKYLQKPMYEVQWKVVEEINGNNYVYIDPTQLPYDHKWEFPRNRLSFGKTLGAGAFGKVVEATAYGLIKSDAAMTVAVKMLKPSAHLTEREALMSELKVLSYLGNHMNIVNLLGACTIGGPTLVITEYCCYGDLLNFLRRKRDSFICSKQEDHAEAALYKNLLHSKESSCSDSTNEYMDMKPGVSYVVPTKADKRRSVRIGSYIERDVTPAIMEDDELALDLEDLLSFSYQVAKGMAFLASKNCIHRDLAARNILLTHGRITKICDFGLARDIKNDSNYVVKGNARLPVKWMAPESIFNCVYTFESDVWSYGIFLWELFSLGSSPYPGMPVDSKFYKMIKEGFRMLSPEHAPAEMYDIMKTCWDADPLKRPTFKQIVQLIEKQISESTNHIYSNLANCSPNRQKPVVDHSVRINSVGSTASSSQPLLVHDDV
# Procedure: In this assay, the oxidation of NADH (measured by decrease in absorbance at 340 nm) was continuously monitored spectrophotometrically. […] The absorption at 340 nm was monitored continuously for 2 hours at 30° C. on Synergy 2 (BioTeK). The reaction rate was calculated using the 0 to 1 h time frame. Percent inhibition was obtained by comparison of reaction rate with that of a control (i.e. with no test compound). IC50 values were calculated from a series of percent inhibition values determined at a range of inhibitor concentrations using software routines as implemented in the GraphPad Prism software package. The protein construct was prepared by deCODE Biostructures using procedures known in the art. The construct contains […] of cKit, an N-terminal tag, a GST-fusion sequence and a TEV cleavage site.
# GIST430 cells = test: GIST 430 Cell Proliferation Assay; assay type: cell-based; details: Homo sapiens, resazurin, 115 hours + 5 hours
# Procedure: GIST48, GIST430, and GIST882 cells were obtained from J. Fletcher (Brigham and Women's Hospital, Boston, Mass.). GIST T1 cells were obtained from B. Rubin (Cleveland Clinic, Cleveland, Ohio) and Professor Takahiro Taguchi (Kochi Medical School, Nankoku, Kochi, Japan). Briefly, GIST48 and GIST 882 cells were grown in RPMI 1640 medium supplemented with 15% characterized fetal bovine serum (Invitrogen, Carlsbad, Calif.), 1 unit/mL penicillin G, 1 μg/ml streptomycin, and 0.29 mg/mL L-glutamine at 37° C., 5% CO2, and 95% humidity. GIST430 cells were grown in Ham's F10 medium supplemented with 15% characterized fetal bovine serum (Invitrogen, Carlsbad, Calif.), 30 mg/L bovine pituitary extract (BD Biosciences, San Jose, Calif.), 0.5% Mito+ serum extender (BD Biosciences, San Jose, Calif.), 1 unit/mL penicillin G, 1 μg/ml streptomycin, and 0.29 mg/mL L-glutamine at 37° C., 5% CO2, 95% humidity. GIST T1 cells were grown in DMEM medium supplemented with 10% characterized fetal bovine serum (Invitrogen, Carlsbad, Calif.), 1 unit/mL penicillin G, 1 ng/ml streptomycin, and 0.29 mg/mL L-glutamine at 37° C., 5% CO2, and 95% humidity.
# A serial dilution of test compound was dispensed into a 384-well black clear bottom plate (Corning, Corning, N.Y.). Two thousand five-hundred cells were added per well in 50 μL complete growth medium. Plates were incubated for 115 hours at 37° C., 5% CO2, 95% humidity. At the end of the incubation period 10 μL of a 440 μM solution of resazurin (Sigma, St. Louis, Mo.) in PBS was added to each well and incubated for an additional 5 hours at 37° C., 5% CO2, 95% humidity. Plates were read on a Synergy2 reader (Biotek, Winooski, Vt.) using an excitation of 540 nm and an emission of 600 nm.
# [9] = target: T7, c-KIT D816H kinase (Seq ID no. 3) (Homo sapiens, UniProt P10721, D816H); test: c-KIT D816H Kinase Assay; assay type: biochemical; details: enzymatic assay, ATP 200 μM
# T7 construct: GST (N); TEV cleavage site (N); purchased deCODE Biostructures
# T7 sequence (P10721 544-976 D816H): as the sequence (P10721 544-976 D816V) above, with V273H counted along it
# Procedure: as §2, with “6” for “5”, “no. 1 except for the D816H mutation.” for “no.”
# Sequence of Phospho-KIT (Tyr719) in GIST430 cells (P10721 with tags, fused parts or gaps DEL560-576/V654A, form open): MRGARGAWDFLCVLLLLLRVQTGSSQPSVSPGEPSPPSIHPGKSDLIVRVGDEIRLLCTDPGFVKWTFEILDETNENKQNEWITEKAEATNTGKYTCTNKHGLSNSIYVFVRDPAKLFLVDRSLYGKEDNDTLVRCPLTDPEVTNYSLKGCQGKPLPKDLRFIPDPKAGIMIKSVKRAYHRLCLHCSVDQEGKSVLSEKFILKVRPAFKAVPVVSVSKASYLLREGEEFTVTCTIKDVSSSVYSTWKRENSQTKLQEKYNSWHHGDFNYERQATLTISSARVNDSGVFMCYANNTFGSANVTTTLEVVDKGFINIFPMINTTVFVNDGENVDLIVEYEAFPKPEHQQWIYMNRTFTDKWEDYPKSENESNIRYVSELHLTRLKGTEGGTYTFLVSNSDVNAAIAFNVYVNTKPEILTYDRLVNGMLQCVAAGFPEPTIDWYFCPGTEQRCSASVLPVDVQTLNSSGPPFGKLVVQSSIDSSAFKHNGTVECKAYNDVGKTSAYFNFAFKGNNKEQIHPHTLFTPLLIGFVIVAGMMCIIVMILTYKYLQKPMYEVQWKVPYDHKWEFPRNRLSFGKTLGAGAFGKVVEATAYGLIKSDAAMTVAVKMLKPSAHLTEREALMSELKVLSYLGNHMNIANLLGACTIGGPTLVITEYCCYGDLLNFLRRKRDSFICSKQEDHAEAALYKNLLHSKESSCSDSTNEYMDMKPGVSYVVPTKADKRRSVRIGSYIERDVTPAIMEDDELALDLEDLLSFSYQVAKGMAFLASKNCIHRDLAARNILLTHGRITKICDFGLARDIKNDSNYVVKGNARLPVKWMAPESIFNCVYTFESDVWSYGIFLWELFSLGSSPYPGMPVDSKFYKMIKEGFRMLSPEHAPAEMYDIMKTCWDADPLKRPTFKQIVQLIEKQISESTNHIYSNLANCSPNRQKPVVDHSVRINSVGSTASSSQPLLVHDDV
Structure (SMILES),IC50 [1],IC50 [2],IC50 [3],IC50 [4],IC50 [5],IC50 [6],IC50 [7],IC50 [8],IC50 [9],IC50 (GIST430 cells)
"CCn1c(=O)c(-c2cc(NC(=O)Nc3cccc(Cl)c3)c(F)cc2F)cc2cnc(NC)cc21 [Example 17, 1-(3-chlorophenyl)-3-(5-(1-ethyl-7-(methylamino)-2-oxo-1,2-dihydro-1,6-naphthyridin-3-yl)-2,4-difluorophenyl)urea]",10 to 100 nM,100 to 1000 nM,10 to 100 nM,10 to 100 nM,–,–,–,–,–,–
"CCn1c(=O)c(-c2cc(NC(=O)Nc3ccccc3)c(F)cc2Br)cc2cnc(NC(C)=O)cc21 [Example 53, 1-(5-(7-acetamido-1-ethyl-2-oxo-1,2-dihydro-1,6-naphthyridin-3-yl)-4-bromo-2-fluorophenyl)-3-phenylurea]",< 10 nM,< 10 nM,< 10 nM,100 to 1000 nM,10 to 100 nM,10 to 100 nM,10 to 100 nM,< 10 nM,–,–
"CCn1c(=O)c(-c2cc(NC(=O)Nc3ccccc3F)c(F)cc2C)cc2cnc(NC)cc21 [Example 38, 1-(5-(1-ethyl-7-(methylamino)-2-oxo-1,2-dihydro-1,6-naphthyridin-3-yl)-2-fluoro-4-methylphenyl)-3-(2-fluorophenyl)urea]",10 to 100 nM,–,–,> 1000 nM,–,–,–,–,–,10 to 100 nM
"CCn1c(=O)c(-c2cc(NC(=O)Nc3ccccc3)c(F)cc2C)cc2cnc(Nc3cnn(C)c3)cc21 [Example 115, 1-(5-(1-ethyl-7-((1-methyl-1H-pyrazol-4-yl)amino)-2-oxo-1,2-dihydro-1,6-naphthyridin-3-yl)-2-fluoro-4-methylphenyl)-3-phenylurea]",–,–,< 10 nM,–,–,10 to 100 nM,10 to 100 nM,< 10 nM,< 10 nM,–

# The next lines start with results.
IC50 [1],IC50 [2],IC50 [3],IC50 [4],IC50 [5],IC50 [6],IC50 [7],IC50 [8],IC50 [9],Structure (SMILES),IC50 (GIST430 cells)
10 to 100 nM,–,–,100 to 1000 nM,–,–,–,–,–,"CCn1c(=O)c(-c2cc(NC(=O)Nc3ccccc3)c(F)cc2C)cc2cnc(NC)cc21 [Example 23, 1-(5-(1-ethyl-7-(methylamino)-2-oxo-1,2-dihydro-1,6-naphthyridin-3-yl)-2-fluoro-4-methylphenyl)-3-phenylurea]",10 to 100 nM
–,–,10 to 100 nM,10 to 100 nM,–,10 to 100 nM,10 to 100 nM,10 to 100 nM,10 to 100 nM,"Cc1cc(F)c(NC(=O)Nc2ccccc2)cc1-c1cc2cnc(NC(=O)N3CCC3)cc2n(C(C)C)c1=O [Example 109, N-(3-(4-fluoro-2-methyl-5-(3-phenylureido)phenyl)-1-isopropyl-2-oxo-1,2-dihydro-1,6-naphthyridin-7-yl)azetidine-1-carboxamide]",–
–,–,< 10 nM,–,–,10 to 100 nM,10 to 100 nM,< 10 nM,10 to 100 nM,"CC(=O)Nc1cc2c(cn1)cc(-c1cc(NC(=O)Nc3cccc(F)c3)c(F)cc1Cl)c(=O)n2C(C)C [Example 99, N-(3-(2-chloro-4-fluoro-5-(3-(3-fluorophenyl)ureido)phenyl)-1-isopropyl-2-oxo-1,2-dihydro-1,6-naphthyridin-7-yl)acetamide]",–
